Test system: DNFB-induced ear swelling
Test: Contact hypersensitivity model in mice (CHS), DNFB-induced ear swelling
Format: in vivo
Conditions: 30 mg/kg p.o., 30 minutes before challenge; DNFB-sensitized Balb/C mice; p<0.05 vs sensitized; FIG. 4
Description: Balb/C female mice of about 8-12 weeks of age (18-22 g b.w.) were used for the Contact Hypersensitivity model. They were from Charles River Italia (Calco, Italy) and housed under the following constant environmental conditions: temperature 22° C.±2, relative humidity 55%±10, 15-20 air changes per hour (filtered on HEPA 99.99%) and artificial light with a 12-hour circadian cycle (7 a.m.-7 p.m.). All in vivo studies were performed according to the European Council Directive 86/609/EEC and the Italian Ministry guidelines for the care and use of experimental animals (decree #116/92). All the experimental protocols were authorized by the Italian Ministry of Health.
All chemicals were purchased from Sigma-Aldrich (St. Louis, Mo., USA) unless otherwise specified. […]
For the induction of CHS, 8-12 weeks old Balb/C mice, were sensitized by applying once a sensitizing solution of 35 μl of 0.5% DNFB in acetone/olive oil (4:1) on the shaved back. […] Ear thickness was monitored using a caliper at day 0, at day 5 (4 h, 8 h), at day 6 (24 h) and at day 7 (48 h). […] Ear thickness of both ears was measured at three point each, ear swelling was evaluated according to the following formula: […]
All values in the text and figures are presented as mean±SEM of (n) independent experiments. All data were analysed by one-way ANOVA followed by Tukey test. […]

In the case of `N#CC(c1ccnc(OCc2ccc(CN3CCOCC3)cc2)n1)c1nc2ccccc2s1` (stereo not shown) [JNK inhibitor, 1,3-benzothiazol-2-yl(2-{[4-(morpholin-4-ylmethyl)benzyl]oxy}pyrimidin-4-yl)acetonitrile], the ear swelling is reported as “significantly reduced ear swelling”.

Source: patent US20090176762A1, “JNK Inhibitors for Treatment of Skin Diseases” (LABORATOIRES SERONO SA, priority 2006, published 2009)
